Laboratory results taken from patent publication US7816397B2, “Phenylcarboxylic acid derivatives and use thereof for the treatment of diabetes” (Merck Patent GmbH, priority 2004, dated 2010).

Tests used:
INS-1 cells = assay: Insulin secretion test on INS-1 cells; format: cell-based; details: Rattus norvegicus, INS1, test compound concentration 10^−5 M, read-out: INS-1 Test concentration 10^−5 M % (Sec INS, percentage of insulin secretion)
Excerpt: Insulin Secretion Test on INS-1 Cells
According to the method described in Endocrinology, 1992 vol. 130 (1) pp. 167-178
Sec INS corresponds to the percentage of insulin secretion.
C corresponds to the concentration of test compound according to the invention.

[1] = tested on: isolated islets of Langerhans; assay: Insulin secretion test on islets isolated from rats (static incubation, stimulation factor); format: cell-based; details: 90 minutes incubation, glucose 2.8 mM or 8 mM (not given), stimulates if factor >= 130%; for Isolated islets 10^−5 M (stimulation factor of insulin secretion): compound 10^−5 M; for Isolated islets 10^−7 M (stimulation factor of insulin secretion): compound 10^−7 M
Method: Insulin Secretion Test on Islets Isolated from Rats
The effect of the compounds on insulin secretion as a function of the glucose concentration was tested, in vitro, in isolated islets of Langerhans in static incubation.
The islets Langerhans obtained by digestion of exocrine pancreatic tissue with collagenase, followed by purification on a Ficoll gradient, are incubated for 90 minutes in the presence of two concentrations of glucose (2.8 mM or 8 mM), in the presence or absence of the chemical compound. The insulin secretion is assayed by RIA in the incubation medium.
The potential of the various chemical compounds to stimulate insulin secretion is estimated by calculating the stimulation factor*.
A compound stimulates insulin secretion if this factor is greater than or equal to 130% for a given dose of glucose.
G=insulin secretion (pmol/min. islet) in the presence of glucose alone
G+P=insulin secretion (pmol/min. islet) in the presence of the same concentration of glucose and of the test compound.

n0-STZ/sucrose rats = assay: In vivo oral glucose tolerance test (OGTT) after daily treatment for 7 days; parameters: species or system Rats Wistar; details: 100 mg/kg/day for 7 days
Method: To evaluate the effect of 2-{2-[4-(4-chlorobenzenesulfonylamino)phenyl]-ethyl}benzoic acid (compound 522) on the glucose tolerance of n0-STZ/sucrose rats, after a daily treatment for 7 days.
Rats Wistar (origin: Charles River, France), which received an injection of streptozotocin (100 mg/kg i.v.) on the day of birth. On their arrival at the Research Centre, at seven weeks old:
• 9 rats were placed on a standard diet (A04, SAFE). • 19 rats were placed on a sucrose-rich diet (58% sucrose, SAFE).
After 2 months on the diet, the rats on the sucrose diet were divided randomly into 2 subgroups (control diabetic, treated diabetic).
The three groups were then treated daily for 7 days, with excipient (0.5% methylcellulose solution) for the control group (healthy animals) and the diabetic control group, or with product (compound 522, 100 mg/kg/day) for the third group.
Glucose Tolerance Test (OGTT):
After treatment for 7 days, the animals were fasted for 3 hours before the start of the test. Samples were taken from the tail of the conscious rats. The first blood sample was taken 10 minutes before the administration of glucose (2 g/kgbody weight/oral route). Blood was then taken 10, 20, 30, 45, 60, 90 and 120 minutes after the administration of glucose.
The glucose tolerance was evaluated by means of the ΔAUC glc, which represents the cumulative increase in glycaemia above the basal value over the 120 minutes of the test.
The insulin response to glucose was estimated by means of the ΔAUC Ins, which represents the cumulative increase in insulinaemia above the basal value over the 120 minutes of the test.

| SMILES | activity at 10 µM (INS-1 cells) [%] | further results |
| --- | --- | --- |
| Cc1cc(C)c(S(=O)(=O)Nc2ccccc2CCCc2ccccc2C(=O)O)c(C)c1 [Compound 121] | 184 |  |
| O=C(O)c1ccccc1CCCCCc1ccccc1NS(=O)(=O)c1cccc2cccnc12 [Compound 168] | 256 | Isolated islets 10^−5 M (stimulation factor of insulin secretion) [1]: +236%; Isolated islets 10^−7 M (stimulation factor of insulin secretion) [1]: +169% |
| O=C(O)c1ccccc1CCCCCc1ccccc1NS(=O)(=O)c1ccccc1F [Compound 152] | 202 |  |
| O=C(O)c1ccccc1CCc1ccccc1NS(=O)(=O)/C=C/c1ccccc1 [Compound 639] | 144 |  |
| CCC(C)(C)c1ccc(S(=O)(=O)Nc2ccccc2CCc2ccccc2C(=O)O)cc1 [Compound 654] | 148 |  |
| O=C(O)c1ccccc1CCc1ccccc1NS(=O)(=O)c1ccc(S(=O)(=O)c2ccccc2)s1 [Compound 650] | 139 |  |
| N#Cc1ccccc1S(=O)(=O)Nc1ccccc1CCc1ccccc1C(=O)O [Compound 655] | 147 |  |
| COc1cc(C)c(S(=O)(=O)Nc2ccccc2CCCCCc2ccccc2C(=O)O)c(C)c1C [Compound 158] | 182 | Isolated islets 10^−5 M (stimulation factor of insulin secretion) [1]: +166%; Isolated islets 10^−7 M (stimulation factor of insulin secretion) [1]: +135% |
| CC(C)c1ccc(S(=O)(=O)Nc2ccccc2CCCCCc2ccccc2C(=O)O)cc1 [Compound 164] | 180 |  |
| Cc1ccc(S(=O)(=O)Nc2ccccc2CCCc2ccccc2C(=O)O)c(C)c1 [Compound 109] | 162 |  |
| CCS(=O)(=O)Nc1ccccc1CCCCCc1ccccc1C(=O)O [Compound 157] | 203 |  |
| O=C(O)c1ccccc1CCc1ccc(NS(=O)(=O)c2ccc(Cl)cc2)cc1 [Compound 522, 2-{2-[4-(4-chlorobenzenesulfonylamino)phenyl]-ethyl}benzoic acid] |  | ΔAUC insulin, treated versus diabetic controls (in words) (n0-STZ/sucrose rats; OGTT 120 minutes): unchanged; ΔAUC glucose down by, treated rats compared with the diabetic controls (n0-STZ/sucrose rats; OGTT glucose 2 g/kg oral, 120 minutes, significant p<0.05): 21%; ΔAUC insulin (cumulative increase in insulinaemia above the basal value) (n0-STZ/sucrose rats; treated rats, OGTT 120 minutes, diabetic controls 11417+/−1440): 14494 ± 665 pmol·min; ΔAUC glucose (cumulative increase in glycaemia above the basal value) (n0-STZ/sucrose rats; treated rats, OGTT 120 minutes, diabetic controls 33306+/−1403): 26438 ± 2255 mg·min/dL |
| CN(C)c1cccc2c(S(=O)(=O)Nc3ccccc3CCCCCc3ccccc3C(=O)O)cccc12 [Compound 159] | 269 |  |
| Cc1ccc(S(=O)(=O)Nc2ccccc2CCCCCc2ccccc2C(=O)O)cc1 [Compound 144] | 191 |  |
| Cc1ccc(S(=O)(=O)Nc2ccccc2CCCCCc2ccccc2C(=O)O)c(C)c1 [Compound 151] | 190 |  |
| CCCCc1ccc(S(=O)(=O)Nc2ccccc2CCc2ccccc2C(=O)O)cc1 [Compound 642] | 140 |  |
| O=C(O)c1ccccc1CCCc1ccccc1NS(=O)(=O)c1ccc2ccccc2c1 [Compound 117] | 175 |  |
